Results taken from US20260248926A1, “BIFUNCTIONAL COMPOUND AND PHARMACEUTICAL COMPOSITION COMPRISING THE BIFUNCTIONAL COMPOUND, AND METHOD FOR TREATING ANDROGEN RECEPTOR RELATED DISEASE BY USING THE SAME” (ANHORN MEDICINES CO., LTD., priority 2022, published 2026).

Each molecule was assayed against T1, androgen receptor (Homo sapiens, UniProt P10275, T878A) (assay: Androgen receptor degradation assay using Western blot analysis in LNCaP.FGC cells). Conditions: concentration needed for 50% AR degradation, 24 hr treatment, read-out: AR DC50.
T1 construct: Several compounds were selected and serial diluted (10×) with RPMI medium for treating LNCaP.FGC cells; host or cells: LNCaP.FGC
T1 sequence (P10275 whole entry T878A): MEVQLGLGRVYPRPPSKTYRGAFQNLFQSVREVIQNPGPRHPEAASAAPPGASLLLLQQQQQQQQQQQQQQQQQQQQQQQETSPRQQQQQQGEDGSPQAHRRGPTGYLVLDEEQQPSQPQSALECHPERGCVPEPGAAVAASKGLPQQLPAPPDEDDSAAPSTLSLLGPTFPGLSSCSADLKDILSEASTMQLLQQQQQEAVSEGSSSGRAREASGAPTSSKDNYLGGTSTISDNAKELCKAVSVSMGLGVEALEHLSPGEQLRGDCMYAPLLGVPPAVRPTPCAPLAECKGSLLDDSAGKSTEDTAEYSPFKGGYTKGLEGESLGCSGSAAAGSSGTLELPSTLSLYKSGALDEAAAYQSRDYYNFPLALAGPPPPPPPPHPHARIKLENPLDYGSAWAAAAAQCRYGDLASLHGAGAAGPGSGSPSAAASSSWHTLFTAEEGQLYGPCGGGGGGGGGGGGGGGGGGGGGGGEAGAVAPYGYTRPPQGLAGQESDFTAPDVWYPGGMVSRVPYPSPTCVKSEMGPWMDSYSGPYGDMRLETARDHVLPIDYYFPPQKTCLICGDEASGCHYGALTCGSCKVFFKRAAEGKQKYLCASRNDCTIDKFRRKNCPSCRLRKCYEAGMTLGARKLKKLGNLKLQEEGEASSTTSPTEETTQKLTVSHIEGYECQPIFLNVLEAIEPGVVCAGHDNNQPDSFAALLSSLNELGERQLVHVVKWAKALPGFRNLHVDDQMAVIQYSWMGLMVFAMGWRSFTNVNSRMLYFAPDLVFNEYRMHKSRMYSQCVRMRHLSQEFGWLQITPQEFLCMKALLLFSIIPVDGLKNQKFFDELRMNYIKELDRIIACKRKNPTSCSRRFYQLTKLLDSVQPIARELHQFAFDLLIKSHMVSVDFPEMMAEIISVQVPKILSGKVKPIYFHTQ
T1 sequence (Q96SW2 whole entry partner): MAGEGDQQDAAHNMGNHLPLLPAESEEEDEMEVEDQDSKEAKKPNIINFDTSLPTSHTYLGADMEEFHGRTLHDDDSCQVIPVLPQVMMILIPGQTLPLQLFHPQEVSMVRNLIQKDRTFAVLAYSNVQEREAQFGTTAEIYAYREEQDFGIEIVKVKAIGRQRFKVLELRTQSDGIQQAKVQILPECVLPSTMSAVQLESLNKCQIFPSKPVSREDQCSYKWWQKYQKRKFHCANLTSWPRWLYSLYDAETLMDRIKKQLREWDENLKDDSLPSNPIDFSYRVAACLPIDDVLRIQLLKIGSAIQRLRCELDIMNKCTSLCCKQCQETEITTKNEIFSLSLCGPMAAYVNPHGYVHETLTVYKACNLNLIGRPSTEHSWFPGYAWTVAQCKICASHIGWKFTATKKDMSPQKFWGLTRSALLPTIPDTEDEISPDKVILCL
Type: cell-based
Method: The internal loading control GAPDH was detected using a mouse monoclonal antibody (1:5000) (GTX627408, GeneTex International Corp., HsinChu City, Taiwan R.O.C.) and a goat anti-mouse HRP-conjugated secondary antibody (1:5000 dilution) (C04001, Croyez Bioscience Co., Ltd., Taipei City, Taiwan R.O.C.).
Several compounds were selected and serial diluted (10×) with RPMI medium for treating LNCaP.FGC cells. A calibration curve was determined by the serial diluted samples for each compound, and the concentration needed for 50% AR degradation (AR DC50) for each compound was calculated.

Row | DC50 [nM] | SMILES
1 | 10 to 25 | Cn1c2c(c3ccc(C4CCN(CC5CCN(c6ccc(C(=O)N[C@H]7CC[C@H](Oc8ccc(C#N)c(Cl)c8)CC7)nn6)C5)CC4)cc31)C(=O)N(C1CCC(=O)NC1=O)C2=O (stereo partly shown) [Compound 34]
2 | > 100 | Cn1c2c(c3cc(N4CCN(CC5CCN(c6ccc(C(=O)N[C@H]7CC[C@H](Oc8ccc(C#N)c(Cl)c8)CC7)nn6)CC5)CC4)ccc31)C(=O)N(C1CCC(=O)NC1=O)C2=O (stereo partly shown) [Compound 41]
3 | 10 to 25 | Cn1c2c(c3ccc(N4CCN(CC5CCN(c6ncc(C(=O)N[C@H]7CC[C@H](Oc8ccc(C#N)c(Cl)c8)CC7)cn6)CC5)CC4)cc31)C(=O)N(C1CCC(=O)NC1=O)C2=O (stereo partly shown) [Compound 35]
4 | 25 to 100 | Cn1c2c(c3cc(N4CCN(CC5CCN(c6ccc(C(=O)N[C@H]7CC[C@@H](Oc8ccc(C#N)c(Cl)c8)CC7)nn6)CC5)CC4)ccc31)C(=O)N(C1CCC(=O)NC1=O)C2=O (stereo partly shown) [Compound 42]
5 | 10 to 25 | Cn1c2c(c3ccc(N4CCN(CC5CCN(c6ccc(C(=O)N[C@H]7C(C)(C)[C@H](Oc8ccc(C#N)c(Cl)c8)C7(C)C)cn6)CC5)CC4)cc31)C(=O)N(C1CCC(=O)NC1=O)C2=O (stereo partly shown) [Compound 27]
6 | 25 to 100 | Cn1c2c(c3cc(N4CCN(CC5CN(c6ccc(C(=O)N[C@H]7CC[C@H](Oc8ccc(C#N)c(Cl)c8)CC7)nn6)C5)CC4)ccc31)C(=O)N(C1CCC(=O)NC1=O)C2=O (stereo partly shown) [Compound 47]
7 | 25 to 100 | Cn1c2c(c3ccc(N4CCN(CC5CCN(c6ccc(C(=O)N[C@H]7C(C)(C)[C@@H](Oc8ccc(C#N)c(Cl)c8)C7(C)C)cn6)CC5)CC4)cc31)C(=O)N(C1CCC(=O)NC1=O)C2=O (stereo partly shown) [Compound 28]
8 | < 10 | Cn1c2c(c3ccc(N4CCN(CC5CN(c6ccc(C(=O)N[C@H]7CC[C@H](Oc8ccc(C#N)c(Cl)c8)CC7)nn6)C5)CC4)cc31)C(=O)N(C1CCC(=O)NC1=O)C2=O (stereo partly shown) [Compound 1]
9 | < 10 | Cn1c2c(c3ccc(C4CCN(CC5CCN(c6ccc(C(=O)N[C@H]7CC[C@@H](Oc8ccc(C#N)c(Cl)c8)CC7)nn6)CC5)CC4)cc31)C(=O)N(C1CCC(=O)NC1=O)C2=O (stereo partly shown) [Compound 30]
10 | < 10 | Cn1c2c(c3ccc(N4CCN(CC5CCN(c6ccc(C(=O)N[C@H]7CC[C@H](Oc8ccc(C#N)c(Cl)c8)CC7)nn6)CC5)CC4)cc31)C(=O)N(C1CCC(=O)NC1=O)C2=O (stereo partly shown) [Compound 21]
11 | 10 to 25 | Cn1c2c(c3ccc(C4CCN(CC5CCN(c6ccc(C(=O)N[C@H]7CC[C@H](Oc8ccc(C#N)c(Cl)c8)CC7)nn6)CC5)CC4)cc31)C(=O)N(C1CCC(=O)NC1=O)C2=O (stereo partly shown) [Compound 29]
12 | 10 to 25 | Cn1c2c(c3ccc(N4CCN(CC5CCN(c6ccc(C(=O)N[C@H]7CC[C@@H](Oc8ccc(C#N)c(Cl)c8)CC7)nn6)CC5)CC4)cc31)C(=O)N(C1CCC(=O)NC1=O)C2=O (stereo partly shown) [Compound 22]
13 | < 10 | Cn1c2c(c3ccc(C4CCN(CC5CN(c6ccc(C(=O)N[C@H]7CC[C@H](Oc8ccc(C#N)c(Cl)c8)CC7)nn6)C5)CC4)cc31)C(=O)N(C1CCC(=O)NC1=O)C2=O (stereo partly shown) [Compound 2]

Same assay, conditions: read-out: AR DC50, concentration needed for 50% AR degradation, 24 hr treatment

Row | SMILES | DC50 [nM]
14 | CCn1c2c(c3ccc(N4CCN(CC5CCN(c6ccc(C(=O)N[C@H]7C(C)(C)[C@@H](Oc8ccc(C#N)c(Cl)c8)C7(C)C)nn6)CC5)CC4)cc31)C(=O)N(C1CCC(=O)NC1=O)C2=O (stereo partly shown) [Compound 9] | 25 to 100
15 | CCn1c2c(c3ccc(N4CCN(CC5CN(c6ccc(C(=O)N[C@H]7CC[C@H](Oc8ccc(C#N)c(Cl)c8)CC7)nn6)C5)CC4)cc31)C(=O)N(C1CCC(=O)NC1=O)C2=O (stereo partly shown) [Compound 3] | < 10
16 | CCn1c2c(c3ccc(C4=CCN(CC5CCN(c6ccc(C(=O)N[C@H]7CC[C@H](Oc8ccc(C#N)c(Cl)c8)CC7)nn6)CC5)CC4)cc31)C(=O)N(C1CCC(=O)NC1=O)C2=O (stereo partly shown) [Compound 48] | 10 to 25
17 | CCn1c2c(c3ccc(N4CCN(CC5CCN(c6ccc(C(=O)N[C@H]7CC[C@@H](Oc8ccc(C#N)c(Cl)c8)CC7)cn6)CC5)CC4)cc31)C(=O)N(C1CCC(=O)NC1=O)C2=O (stereo partly shown) [Compound 5] | 25 to 100
18 | CCn1c2c(c3ccc(N4CCC(CN5CCC(c6ccc(C(=O)N[C@H]7CC[C@H](Oc8ccc(C#N)c(Cl)c8)CC7)nn6)CC5)CC4)cc31)C(=O)N(C1CCC(=O)NC1=O)C2=O (stereo partly shown) [Compound 40] | 10 to 25
19 | CCn1c2c(c3ccc(N4CCN(CC5CCN(c6ccc(C(=O)N[C@H]7CC[C@H](Oc8ccc(C#N)c(Cl)c8)CC7)cn6)CC5)CC4)cc31)C(=O)N(C1CCC(=O)NC1=O)C2=O (stereo partly shown) [Compound 4] | 25 to 100
20 | CCn1c2c(c3ccc(N4CCC5(CC4)CN(CC4CCN(c6ccc(C(=O)N[C@H]7CC[C@H](Oc8ccc(C#N)c(Cl)c8)CC7)nn6)CC4)C5)cc31)C(=O)N(C1CCC(=O)NC1=O)C2=O (stereo partly shown) [Compound 51] | < 10
21 | CCn1c2c(c3ccc(C4CCN(CC5CCN(c6ccc(C(=O)N[C@H]7CC[C@H](Oc8ccc(C#N)c(Cl)c8)CC7)nn6)CC5)CC4)cc31)C(=O)N(C1CCC(=O)NC1=O)C2=O (stereo partly shown) [Compound 11] | < 10
22 | CCn1c2c(c3ccc(N4CCN(CC5CCN(c6ncc(C(=O)N[C@H]7CC[C@H](Oc8ccc(C#N)c(Cl)c8)CC7)cn6)CC5)CC4)cc31)C(=O)N(C1CCC(=O)NC1=O)C2=O (stereo partly shown) [Compound 25] | 10 to 25
23 | CCn1c2c(c3ccc(C4CCN(CC5CN(c6ccc(C(=O)N[C@H]7CC[C@H](Oc8ccc(C#N)c(Cl)c8)CC7)nn6)C5)CC4)cc31)C(=O)N(C1CCC(=O)NC1=O)C2=O (stereo partly shown) [Compound 10] | < 10
24 | CCn1c2c(c3ccc(N4CCN(CC5CCN(c6ccc(C(=O)N[C@H]7CC[C@@H](Oc8ccc(C#N)c(Cl)c8)CC7)nn6)CC5)CC4)cc31)C(=O)N([C@H]1CCC(=O)NC1=O)C2=O [Compound 39] | 10 to 25
25 | CCn1c2c(c3ccc(N4CCN(CC5CCN(c6ncc(C(=O)N[C@H]7CC[C@@H](Oc8ccc(C#N)c(Cl)c8)CC7)cn6)CC5)CC4)cc31)C(=O)N(C1CCC(=O)NC1=O)C2=O (stereo partly shown) [Compound 26] | > 100
26 | CCn1c2c(c3ccc(N4CCN(CC5CCN(c6ccc(C(=O)N[C@H]7C(C)(C)[C@H](Oc8ccc(C#N)c(Cl)c8)C7(C)C)cn6)CC5)CC4)cc31)C(=O)N(C1CCC(=O)NC1=O)C2=O (stereo partly shown) [Compound 6] | 25 to 100
27 | CCn1c2c(c3ccc(N4CCN(CC5CCN(c6ccc(C(=O)N[C@H]7C(C)(C)[C@@H](Oc8ccc(C#N)c(Cl)c8)C7(C)C)cc6)CC5)CC4)cc31)C(=O)N(C1CCC(=O)NC1=O)C2=O (stereo partly shown) [Compound 16] | > 100
28 | CCn1c2c(c3ccc(N4CCN(CC5CCN(c6ccc(C(=O)N[C@H]7C(C)(C)[C@H](Oc8ccc(C#N)c(Cl)c8)C7(C)C)cc6)CC5)CC4)cc31)C(=O)N(C1CCC(=O)NC1=O)C2=O (stereo partly shown) [Compound 15] | 25 to 100
29 | CCn1c2c(c3ccc(C4CCN(CC5CCN(c6ccc(C(=O)N[C@H]7CC[C@H](Oc8ccc(C#N)c(Cl)c8)CC7)nn6)C5)CC4)cc31)C(=O)N(C1CCC(=O)NC1=O)C2=O (stereo partly shown) [Compound 18] | 10 to 25
30 | CCn1c2c(c3ccc(N4CCN(CC5CCN(c6ccc(C(=O)N[C@H]7CC[C@@H](Oc8ccc(C#N)c(Cl)c8)CC7)nn6)CC5)CC4)cc31)C(=O)N(C1CCC(=O)NC1=O)C2=O (stereo partly shown) [Compound 33] | < 10
31 | CCn1c2c(c3ccc(N4CCN(CC5CCN(c6ccc(C(=O)N[C@H]7CC[C@H](Oc8ccc(C#N)c(Cl)c8)CC7)nn6)C5)CC4)cc31)C(=O)N(C1CCC(=O)NC1=O)C2=O (stereo partly shown) [Compound 17] | 10 to 25
32 | CCn1c2c(c3ccc(N4CCN(CC5CCN(c6ccc(C(=O)N[C@H]7CC[C@H](Oc8ccc(C#N)c(Cl)c8)CC7)nn6)CC5)CC4)cc31)C(=O)N(C1CCC(=O)NC1=O)C2=O (stereo partly shown) [Compound 23] | 10 to 25
33 | CCn1c2c(c3ccc(N4CCN(CC5CCN(c6ccc(C(=O)N[C@H]7C(C)(C)[C@@H](Oc8ccc(C#N)c(Cl)c8)C7(C)C)cn6)CC5)CC4)cc31)C(=O)N(C1CCC(=O)NC1=O)C2=O (stereo partly shown) [Compound 7] | 25 to 100
34 | CCn1c2c(c3ccc(N4CCN(CC5CCN(c6ccc(C(=O)N[C@H]7C(C)(C)[C@H](Oc8ccc(C#N)c(Cl)c8)C7(C)C)nn6)CC5)CC4)cc31)C(=O)N(C1CCC(=O)NC1=O)C2=O (stereo partly shown) [Compound 8] | 25 to 100
35 | CCn1c2c(c3ccc(N4CCN(CC5CCN(c6ccc(C(=O)N[C@H]7CC[C@H](Oc8ccc(C#N)c(Cl)c8)CC7)nn6)CC5)CC4)cc31)C(=O)N([C@H]1CCC(=O)NC1=O)C2=O [Compound 36] | 10 to 25
36 | CCn1c2c(c3ccc(C4CCN(CC5CCN(c6ccc(C(=O)N[C@H]7C(C)(C)[C@H](Oc8ccc(C#N)c(Cl)c8)C7(C)C)cc6)CC5)CC4)cc31)C(=O)N(C1CCC(=O)NC1=O)C2=O (stereo partly shown) [Compound 24] | 25 to 100
37 | CCn1c2c(c3ccc(C4CCN(CC5CCN(c6ccc(C(=O)N[C@H]7CC[C@@H](Oc8ccc(C#N)c(Cl)c8)CC7)nn6)CC5)CC4)cc31)C(=O)N(C1CCC(=O)NC1=O)C2=O (stereo partly shown) [Compound 12] | 10 to 25
